Experimental data taken from US9408828B2, “(+)-3′-angeloyloxy-4′-keto-3′,4′-dihydroseselin for treating inflammation” (Hong Kong Baptist University, priority 2014, dated 2016).
Values after ≈ are worked out from the molar mass of the structure shown.

Tests used:
Type in all cases: cell-based, murine
NF-κB = assay: Anti-inflammatory bioassay (Quanti-Blue assay), SEAP activity; conditions: Mus musculus, Macrophage; LPS-stimulated macrophages; read-out: IC50, inhibition of SEAP activity
Procedure: RAW-Blue cells (5×10^4) are cultured in 96-well plate for 24 hours, and then treated with LPS (1 μg/mL) alone or together with test samples for 20 hours. Secreted embryonic alkaline phosphatase (SEAP) activity in the conditioned medium is determined using QUANTI-Blue medium following manufacturer's manual. Briefly, 100 μL samples are added to 200 μL of QUANTI-Blue medium and incubated at 37° C. for 15 to 30 minutes. Absorbance is measured at 620 nm using a micro-plate reader (Benchmark plus Bio-Red, CA, USA) and fold change in SEAP activity is calculated accordingly.
Raw-Blue cells are derived from RAW264.7 macrophages. Then the murine macrophage cell line of Raw-Blue cells is cultured in plastic dishes containing DMEM supplemented with 100 U/mL of penicillin, 100 μg/mL of streptomycin and 10% FBS in an incubator (5% CO2) at 37° C. Cells are sub-cultured every 3 days at a dilution of 1:6.
The SEAP activity in the supernatants of LPS-stimulated RAW-Blue cells reflects the activation of NF-κB. The inhibition of the NF-κB activation can associate with mitigation of colon inflammation responses and apoptosis of intestinal epithelial cells in DSS mouse model. Western blotting and immunofluorescence analysis are performed to determine whether Pd-Ib depressed NF-κB activation. […]

IL-1β = assay: Real-time PCR of IL-1β mRNA in LPS-stimulated RAW-Blue cells; conditions: LPS 1 μg/mL, 5, 10, 20 μg/mL, 20 hours
Procedure: After macrophages are treated with 1 μg/mL of LPS in absence or presence various concentrations of Pd-Ib (5, 10, 20 μg/mL) for 20 hours, the mRNA levels of iNOS (A), TNF-α (B) and IL-1β (C) are determined by real time PCR, while the production of NO (D) is determined by Griess reagent. Data are derived from three independent experiments and presented as mean±SEM, “con” stands for the vehicle control group. ^#Compared with control group. *P<0.05, **P<0.01 and ***P<0.001 are compared with LPS-alone group.
Raw-Blue cells are plated at 20×10^5 cells/well in 12-well plate. After 24 hours of incubation, cells are pretreated with various concentrations (5-20 μg/mL) of Pd-Ib for 2 hours, followed by co-culturing with LPS (1 μg/mL) for 20 hours. Total RNA of Raw-Blue cells is extracted by Trizol reagent. Two micrograms (2 μg) of total RNA are reverse-transcribed with RT master mix to obtain cDNA. Real-time PCR is performed in a ViiA7 real-time PCR instrument (Applied Biosystems, Life Technologies, CA, USA) with the SYBR Green kit. A melting curve analysis is carried out after amplification to verify the accuracy of the amplicon. The comparative cycle of threshold (ΔΔCT) method of relative quantification is used to determine the fold-change in expression. Primer sequences for mRNA analysis of IL-1β, TNF-α, iNOS and β-Actin are described in Table 1.

RAW-Blue cells = assay: Cell viability (MTT) assay; conditions: 24 hours
Procedure: Cells are cultured for 24 hours in the presence of Pd-Ib at the concentrations indicated, from 1.25-100 μg/mL. Cell viability is assessed using MTT assay. Data are derived from three independent experiments and presented as mean±SEM. “con” stands for the vehicle control group.
Cells (5×10^4) are cultured in 96-well plates for 24 hours. Then cells are cultured with various concentrations of Pd-Ib (1.25, 2.5, 5, 10, 20, 40, 80, 100 μg/mL) for 24 hours. After that, 10 μL of 5 mg/mL MTT is added to each well, and the cells are cultured in the dark for 3 hours. The medium is then discarded, and 100 μL of dimethyl sulfoxide (DMSO) is added into each well. After 15 min incubation, the optical density at 570 nm is read by using a micro-plate reader to determine the cell viability.

With `C/C=C(\C)C(=O)OC1C(=O)c2c(ccc3ccc(=O)oc23)OC1(C)C` (single isomer, unassigned; (+)) [Pd-Ib, (+)-3′-Angeloyloxy-4′-keto-3′,4′-dihydroseselin] the IC50 (NF-κB) was 22.5 µg/mL (≈ 65.8 µM), the “mRNA expression of IL-1β” value (IL-1β) was “inhibit the mRNA expressions of TNF-α and IL-1β in a dose-dependent manner” and the cytotoxic effect (RAW-Blue cells; 1.56 to 20 μg/mL) was “does not exhibit cytotoxic effect”. For the same compound, the cell viability (RAW-Blue cells; 40, 80, and 100 μg/mL) was “cell viability is reduced”.
